# Laboratory results: article PMC10706763, “Molecular and Functional Characterization of Pheromone Binding Protein 2 from Cyrtotrachelus buqueti (Coleoptera: Curculionidae)” (International Journal of Molecular Sciences, 2023)
# Entries after “also recorded” stand apart in the source; their conditions may differ.
# Experiments:
# [1] = tested on: CbuqPBP1; parameters: method as in doi:10.1111/phen.12209; conditions: cited from earlier work
# [2] = tested on: virgin males of C. buqueti; parameters: method as in earlier work; conditions: compared with mated males and virgin females; cited from earlier work
# [3] = tested on: antennae of male C. buqueti adults; assay: EAG assays after RNAi of CbuqPBP2; assay type: in vivo, Cyrtotrachelus buqueti; conditions: 72 h after dsRNA injection; chemical at 100 μg/μL in n-hexane
# Method: To evaluate the function of CbuqPBP2 in C. buqueti olfaction, the dsRNA-injected, RNase-free water-injected, or non-injected male adults were subjected to EAG (Syntech, Hilversum, Netherlands) at 72 h after injection. Based on the results of the fluorescence competition binding assay, the chemicals (dibutyl phthalate, ethyl hexanoate, styrene and linalool) that bound with CbuqPBP2 were selected for electrophysiological experiments. The tested chemicals were diluted in n-hexane to prepare a solution at a concentration of 100 μg/μL, and n-hexane was used as a blank control.
# The antenna for EAG detection was cut off and amputated at the base and tip. The basal and distal ends of the excised antenna were linked to a reference electrode and recording electrode by one teardrop of Spectra R360 electrically conductive gel, respectively. A filter paper strip (2 cm × 0.5 cm) loaded with ten microliters of each chemical solution was inserted into the sample tube (10 cm in length) as a stimuli source. An air-stimulus controller (CS-05 model) was used to deliver the stimulus. The stimulation time was 0.5 s, and the interval for antennal recovery was 30 s. The response of the antenna to each chemical was detected using a high-impedance amplifier (IDAC2) and analyzed using the EAG software (version 2.0) supplied with the instrument. The chemicals were tested randomly for each antenna. The antenna was stimulated one time with n-hexane before and after each chemical stimulation. Three to six antennae were measured for each chemical in independent experiments, and each antenna was tested three times. EAG responses were recorded in mV, and the relative EAG response of each chemical was calculated by using the following formula: Relative EAG response=EAGA/EAGCK1+EAGCK2/2 where EAG(A) represents the EAG response to the chemical; EAGCK1 and EAKCK2 represent EAG responses to n-hexane before and after each chemical stimulation, respectively.
# [4] = biological target: CbuqPBP2 (Cyrtotrachelus buqueti, UniProt A0A1L3KPR5); assay: Fluorescence competitive binding assay with 1-NPN probe; conditions: increasing ligand concentration, Figure 4C,D
# Sequence of CbuqPBP2 (A0A1L3KPR5 entry or part of it): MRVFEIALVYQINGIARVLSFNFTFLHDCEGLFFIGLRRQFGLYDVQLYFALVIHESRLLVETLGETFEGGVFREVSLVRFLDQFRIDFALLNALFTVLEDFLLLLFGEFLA
# Method: The fluorescent probe 1-NPN and the tested chemicals with a purity of at least more than 96% were purchased from Aladdin Biochemical Technology Co., LTD. (Shanghai, China). The fluorescence binding assay was carried out on a Lumina fluorescence spectrophotometer (Thermo Fisher Scientific, MA, USA) using a 1 cm light path quartz cuvette at 25 °C. All the slit widths for both excitation and emission were 5 nm. The 1-NPN and all the compounds tested were dissolved in chromatography-grade methanol to a final concentration of 1 mM. The CbuqPBP2 protein was dissolved in 50 mM Tris–HCl buffer at pH 7.4 to a final concentration of 2 μM. […] The scanning range was 350–550 nm at each concentration, and the maximum fluorescence intensities were plotted against the free ligand concentration.
SMILES,binding affinity of CbuqPBP1 [1],attraction effect [2],EAG response of dsCbuqPBP2-treated male adults versus water-injected and non-injected controls [3],fluorescence intensity in competitive binding curve [4]
CCCCOC(=O)c1ccccc1C(=O)OCCCC [Dibutyl phthalate],strongest binding affinity,more significant attraction effect,significantly reduced,
CCCCCC(=O)OCC [Ethyl hexanoate],,,did not significantly decrease,
c1ccc2[nH]ccc2c1 [Indole],,,,the fluorescence intensity enhanced as the ligand concentration increased
C=CC(C)(O)CCC=C(C)C (stereo not drawn) [Linalool],,,not significantly reduced; also recorded: did not influence the EAG response,
CC(C)=CCC/C(C)=C/CC/C(C)=C/CC/C=C(\C)CC/C=C(\C)CCC=C(C)C [Squalene],,,,the fluorescence intensity enhanced as the ligand concentration increased
C=Cc1ccccc1 [Styrene],lower binding affinity,,significantly reduced,
